From ChEMBL document CHEMBL1146105, “Synthesis and analgesic activity of secondary amine analogues of pyridylmethylamine and positional isomeric analogues of ABT-594” (Bioorg Med Chem Lett, 2006)

Legend:
[1] = Toxicity in […] at 20 mg/kg, sc assessed as rate of death; type: organism-based; parameters: dose 20 mg/kg, route subcutaneous; settings: in vivo, read-out: Activity
Mus musculus [2] = assay: Analgesic activity in mice at 20 mg/kg, sc by acetic acid writhing test; type: functional; settings: route subcutaneous
Mus musculus [3] = assay: Analgesic activity in mice at 10 mg/kg, sc by acetic acid writhing test; type: functional; settings: route subcutaneous
[4] = Toxicity in […] at 10 mg/kg, sc assessed as rate of death; type: organism-based; parameters: dose 10 mg/kg, route subcutaneous; settings: in vivo, read-out: Activity
[5] = Toxicity in rat at 5 mg/kg, sc assessed as rate of death; settings: in vivo
Mus musculus [6] = assay: Analgesic activity in mice at 5 mg/kg, sc by acetic acid writhing test; settings: read-out: Inhibition

SMILES: Clc1ccc(NCC2CCCO2)cn1 (centres undefined)
- mortality [1]: 0%
- inhibition in vivo at 20 mg/kg (Mus musculus [2]): 0%

SMILES: c1ccc(NCCc2ccco2)nc1
- mortality [1]: 0%
- inhibition in vivo at 20 mg/kg (Mus musculus [2]): 0%

SMILES: Clc1ccc(CNCCC2CCCO2)cn1 (centres undefined)
- mortality [1]: 0%
- inhibition in vivo at 20 mg/kg (Mus musculus [2]): 35%

SMILES: c1ccc(CNC2CCCC2)nc1
- mortality [1]: 0%
- inhibition in vivo at 20 mg/kg (Mus musculus [2]): 0%

SMILES: c1cncc(CNC2CCCC2)c1
- inhibition in vivo at 10 mg/kg (Mus musculus [3]): 0%
- mortality [4]: 0%
- mortality [1]: 0%
- inhibition in vivo at 20 mg/kg (Mus musculus [2]): 61%

SMILES: c1ccc(NCCC2CCCO2)nc1 (centres undefined)
- mortality [1]: 0%
- inhibition in vivo at 20 mg/kg (Mus musculus [2]): 0%

SMILES: c1cncc(NCC2CO2)c1 (centres undefined)
- mortality [1]: 0%
- inhibition in vivo at 20 mg/kg (Mus musculus [2]): 0%

SMILES: c1cncc(CNCCc2ccco2)c1
- inhibition in vivo at 10 mg/kg (Mus musculus [3]): 0%
- mortality [4]: 0%
- mortality [1]: 0%
- inhibition in vivo at 20 mg/kg (Mus musculus [2]): 50%

SMILES: c1cncc(CNCCC2CCCO2)c1 (centres undefined)
- inhibition in vivo at 10 mg/kg (Mus musculus [3]): 56%
- mortality [4]: 0%
- mortality [1]: 0%
- inhibition in vivo at 20 mg/kg (Mus musculus [2]): 23%

SMILES: Clc1ccc(CNCCc2ccco2)cn1
- inhibition in vivo at 10 mg/kg (Mus musculus [3]): 41%
- mortality [4]: 0%
- mortality [1]: 0%
- inhibition in vivo at 20 mg/kg (Mus musculus [2]): 46%

SMILES: Clc1ccc(NCC2CO2)cn1 (centres undefined)
- mortality [1]: 0%
- inhibition in vivo at 20 mg/kg (Mus musculus [2]): 20.5%

SMILES: Clc1ccc(CNC2CCCC2)cn1
- inhibition in vivo at 10 mg/kg (Mus musculus [3]): 37%
- mortality [4]: 0%
- mortality [1]: 0%
- inhibition in vivo at 20 mg/kg (Mus musculus [2]): 66%

SMILES: CN1CCC[C@H]1c1cccnc1 [NICOTINE]
- inhibition in vivo at 10 mg/kg (Mus musculus [3]): 100%
- mortality [4]: 50%
- mortality [5]: 25%
- inhibition in vivo at 5 mg/kg (Mus musculus [6]): 88%
- mortality [1]: 100%
